Test results as given in patent US12653862B2, “Anti-senescence compounds and uses thereof” (CLEARA BIOTECH B.V., priority 2020, dated 2026).
Entries after “also recorded” stand apart in the source; their conditions may differ. Where two headings read alike, the source gives them in different places.

What was measured:
[1] = Peptide stability in solution; format: physicochemical
Description: Both peptides were dissolved in H2O and kept at room temperature. The peptide concentration was determined for the indicated time points.

3D colon organoids = assay: Outgrowth of 3D colon organoids after peptide exposure; format: cell-based
Description: (§1) Organoids were grown at 37° C. and 5% CO2 in a humidified incubator. All organoids were cultured in matrigel (Corning) droplets in advanced DMEM/F12 (Lonza) supplemented with 1% glutamax, 1% Penicillin/Streptomycin, 1% (10 mM) HEPES, 10% Noggin conditioned medium, 2% B-27 (50×; (Thermo/Life Technologies), N-acetylcysteine ((Sigma-Aldrich, 1.25 mM)), A83-01 (Tocris, 500 nM) and SB203580 (Invitrogen/Life Technologies, 3 μM). To perform viability and apoptosis assays, the organoids were passaged through resuspension in ice-cold medium, followed by centrifugation in 15 ml tubes at 4° C. The resulting pellet was trypsinized for 5 minutes at 37° C. to obtain single cells and subsequently washed twice with advanced DMEM/F12 media. These cells were then resuspended in Matrigel and plated in 96-well plates in 5 ul droplets. 100 ul fresh medium was added to the wells 15 minutes later. Peptide and chemotherapy treatment was added to the organoids 2 days after plating.
A Live/dead assay was performed on both larger organoids 3 days after peptide and/or chemotherapy treatment, or on organoids that were treated as single cells and allowed to grow out for 2 weeks before the assay was performed. […] The organoids were then imaged on a Zeiss Cell Observer microscope and the signal was quantified using FIJI.

IMR90 lung fibroblasts = assay: Caspase-3/7 apoptosis assay in senescent vs healthy control IMR90 cells; format: cell-based, Human; details: for apoptosis induction by Caspase-3/7 activation, senescent vs healthy control cells: IMR90, FOXO4-DRI as control
Description: (§2) Human IMR90, WI38 and RPE cells were grown in Dulbecco's Modified Eagle's Medium (DMEM; Lonza) containing 10% FCS and 1% pen/strep at 37° C. with 3.0% 02 and 5.0% CO2. To induce senescence, cells were irradiated with 10Gy ionizing radiation (Gammacell 1000) and were left for a minimum of 10 days to become senescent.
(§3) To perform viability and apoptosis assays, cells were split into 96-well plates and treated with peptides 2 days later. Non-senescent and cancer cells were plated 1500 cells/well, while senescent cells were plated at 8.000 cells/well.
(§4) For a caspase assay, Caspase-Glo 3/7 assay reagent (Promega) was added to the medium 2 days after treatment. The plates were then incubated in aluminium foil at room temperature on a shaker for 1 hour and subsequently measured with a Luminescence Plate Reader.

full-length TP53 = target: T1, full-length TP53 (Homo sapiens, UniProt P04637); assay: Streptavidin bead pull-down of endogenous TP53 from HEK293T lysates with biotinylated peptide; format: binding; details: streptavidin beads, HEK293T cell lysates, vs FOXO4-DRI
T1 construct: endogenous TP53 from lysates ofHEK293T cells; endogenous in cells; host or cells: HEK293T

MCF10 cells = assay: Caspase assay in senescent human breast epithelial MCF10 cells; format: cell-based; details: 2 days, vs FOXO4-DRI/CL03001
Description: as §4

[2] = system: colon cancer 3D organoids; assay: Colon cancer 3D organoids, live/dead assay, with chemotherapy; format: cell-based; details: for cell death vs cell cycle arrest: colon cancer 3D organoids
Description: as §1
A Live/dead assay was performed on both larger organoids 3 days after peptide and/or chemotherapy treatment, or on organoids that were treated as single cells and allowed to grow out for 2 weeks before the assay was performed. To perform the assay, Calcein-AM (1:1000) and Propidium Iodide (PI; 1:100) were added to the medium of the organoids to detect living and dead cells respectively. The organoids were then imaged on a Zeiss Cell Observer microscope and the signal was quantified using FIJI.

[3] = system: normal wildtype colon organoids; assay: Normal wildtype colon organoids, with or without APC depletion; format: cell-based
Description: as §1

Caspase-3/7 activation = assay: Live imaging of Caspase-3/7 activation over time; format: cell-based
Description: Organoids and IMR90 cells were grown in 96-well cell culture plates and either the 488 IncuCyte Caspase 3/7 Reagent For Apoptosis (Sartorius) or the IncuCyte Caspase 3/7 red apoptosis assay reagent (Essen Bioscience) was added to the wells. Peptides were added directly before the plate was transferred to a Zeiss Cell Observer microscope that contains a Heat and CO2-controlled compartment. Subsequently, live imaging was started where a picture was recorded every 2 hours for 60 hours. Images were processed using Zen imaging software (Zeiss).

GBM8 glioblastoma cells [4] = assay: Loss of LDH (cell death) in GBM8 glioblastoma cells; format: cell-based; details: GBM8, vs FOXO4-DRI
Description: (§5) GBM8 cells were cultured in Dulbecco's Modified Eagle's Medium/Nutrient Mixture F-12 (DMEM F-12), containing high glucose, L-Glutamine, no phenol red, supplemented with 1% (10 mM) HEPES, 1% Penicillin/Streptomycin, 2% B-27 (50×), 5 μg/ml Heparin sodium salt from porcine intestinal mucosa Grade I-A, 20 ng/ml recombinant human Fibroblast Growth Factor (rhFGF) and 20 ng/ml recombinant human Epidermal Growth Factor (rhEGF). These cells were cultured in plastic ware coated with Matrigel Matrix (20× diluted in DMEM F-12) at 37° C., 5% CO2 and 3% O2 in a humified incubator.
as §3

TP53-TAD2 = target: T2, TP53-TAD2 (Homo sapiens, UniProt P04637); assay: Fluorescence polarization with FITC-labeled TP53-TAD2; format: binding; details: FITC-labeled TP53-TAD2 (250 nM), increasing concentrations of peptides
T2 construct: amino acid 37 to 57 (p53-TAD2)
Description: 116 μl of a solution of the specific peptides (ranging from 1 to 100 μM) were prepared. […] 35 μl were then transferred in each well of the 384-well plate. Measurements were performed in triplicates.
Data was acquired on a ClarioStar Plus platereader. Endpoint measurement with 200 flashes per well were performed. An excitation filter with 482 nm wavelength and emission filter with 530 nm were used and gain adjustment as well as focal height adjustment were performed for each measurement. Fluorescence intensity, parallel fluorescence polarization and perpendicular fluorescence polarization were recorded.
Data analysis was performed using MARS Version 3.4 (BMG), Microsoft Excel and GraphPad Prism Version 8.

WI38 cells = assay: Apoptosis in healthy WI38 cells; format: cell-based, Human; details: FIG. 9C
Description: as §2, §3, §4

GBM8 glioblastoma cells [5] = assay: Caspase-3/7 activation (apoptosis) in GBM8 glioblastoma cells; format: cell-based
Description: as §5, §3, §4

[6] = system: colon carcinoma 3D organoid cultures; assay: Colon carcinoma 3D organoid cultures; format: cell-based
Description: as §1

[7] = system: WT colon and tumor progression (TPO) organoids; assay: Cell viability of WT colon and tumor progression (TPO) organoids; format: cell-based; details: increasing concentrations, measured 5 days later
Description: as §1

T2 sequence (P04637 37-57 limits assumed): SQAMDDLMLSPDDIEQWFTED
T1 sequence (P04637 whole entry): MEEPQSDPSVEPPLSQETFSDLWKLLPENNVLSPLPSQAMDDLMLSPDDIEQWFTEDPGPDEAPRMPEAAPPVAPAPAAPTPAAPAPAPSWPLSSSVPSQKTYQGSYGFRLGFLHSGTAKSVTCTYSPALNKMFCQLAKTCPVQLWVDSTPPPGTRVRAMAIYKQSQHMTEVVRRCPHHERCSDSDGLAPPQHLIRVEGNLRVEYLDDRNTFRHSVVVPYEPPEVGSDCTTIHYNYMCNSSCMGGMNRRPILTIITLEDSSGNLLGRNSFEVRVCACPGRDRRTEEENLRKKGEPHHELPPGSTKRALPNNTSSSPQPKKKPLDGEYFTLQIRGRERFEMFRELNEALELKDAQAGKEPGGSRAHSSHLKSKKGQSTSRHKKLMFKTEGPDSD

## AKIEAAILDAFSQNBRKRRRRQRRKKRG [CL05114]
[1]
  stability in solution: superior stability

## RKKASSKIAAAILDAFSQNGWANRRSSCKRP (listed as Homo sapiens) [CL04009]
3D colon organoids; 14 d after exposure
  tumor outgrowth of organoids: no more tumor outgrowth
3D colon organoids; colon organoids
  cytotoxic vs cytostatic effect: cytotoxic on colon organoids and not just cytostatic
IMR90 lung fibroblasts
  apoptosis induction by Caspase-3/7 activation, senescent vs healthy control cells: superior selectivity to induce apoptosis by Caspase-3/7 activation in senescent, but not healthy control IMR90 lung fibroblasts; also recorded: very potent and selective capacity to induce apoptosis in senescent
IMR90 lung fibroblasts; IMR90, compared with FOXO4-DRI
  effective concentration (potency): effective at a lower concentration
full-length TP53
  pull-down of endogenous TP53 (binding to full-length TP53): potent in binding recombinant TP53-TAD2 and full-length TP53
MCF10 cells
  apoptosis induction (caspase assay), potency: more potent in inducing apoptosis

## RKKASSKIAAAILDAFSQNWRRKR (listed as Homo sapiens) [CL04088]
IMR90 lung fibroblasts
  apoptosis induction by Caspase-3/7 activation, senescent vs healthy control cells: superior to peptide CL04022

## RKKASSKIAAAILDAFSQNAWANRRSSCKRPPPRRRQRRKKRA (listed as Homo sapiens) [SEQ ID NO: 23]
[1]
  stability in solution: improved stability in solution

## O=c1[nH]cc(F)c(=O)[nH]1 [SFU, 5-fluorouracil, reference compound]
[2]
  cell death vs cell cycle arrest: merely causes a cell cycle arrest

## RKKASSKIAAAILDAFSQNAWANRRSSCKRP (listed as Homo sapiens) [CL04022]
[3]; normal wildtype colon organoids
  potency against organoids: less potency
[3]; organoids depleted for APC
  efficacy against organoids: effective
Caspase-3/7 activation
  full Caspase-3/7 activation complete: 60 h
  start of Caspase-3/7 activation after administration: 24 h
[2]; after 5′FluoroUracil or Oxaliplatin
  efficacy in organoids that survived chemotherapy: more effective
[2]
  cell death vs cell cycle arrest: induces cell death, not merely causes a cell cycle arrest
IMR90 lung fibroblasts
  apoptosis induction by Caspase-3/7 activation, senescent vs healthy control cells: still better than the control
[1]; dissolved in H2O, room temperature, multiple days
  stability, peptide concentration over time: more stable than CL04009
[1]; in solution
  stability in solution: improved stability in solution
GBM8 glioblastoma cells [4]
  loss of LDH (cell death), potency: more potent than FOXO4-DRI
TP53-TAD2
  binding of TP53-TAD by fluorescence polarization: more potent in binding TP53-TAD than the reference compound
WI38 cells
  apoptosis induction: not in healthy Wi38 cells
GBM8 glioblastoma cells [5]; GBM8, vs FOXO4-DRI
  Caspase3/-7 activation (apoptosis), potency: more potent than FOXO4-DRI
GBM8 glioblastoma cells [5]; GBM8 glioblastoma cells, FIG. 9C
  apoptosis induction: induce apoptosis in GBM8 glioblastoma cells
[6]; one Microsatellite stable (MSS) line
  efficacy against organoid cultures: ineffective
[6]; patient-derived samples
  selectivity, patient-derived colorectal cancers vs healthy control samples: selective
[6]; two microsatellite-unstable (MSI) lines
  efficacy against organoid cultures: effective

## RKKASSKIEAAILDAFSQNWRRKRPPRRRQRRKKRG (listed as Homo sapiens) [CL04124]
[7]
  cell viability, sensitivity of organoids with colorectal cancer associated mutations: sensitizes to FOXO4-based peptides, dependent on p53
